Data: patent US7781451B2, “Thiazolopyridine derivatives, pharmaceut ical conditions containing them and methods of treating glucokinase mediated conditions” (Novartis AG, priority 2004, dated 2010)

Columns and labels:
recombinant GST-GK = target: T1, recombinant GST-GK (Homo sapiens, UniProt P35557); assay: in vitro assay measuring the activation of recombinant GST-GK; type: biochemical; settings: thioNADH-coupled assay read at 405 nm
T1 sequence (P35557 1-465): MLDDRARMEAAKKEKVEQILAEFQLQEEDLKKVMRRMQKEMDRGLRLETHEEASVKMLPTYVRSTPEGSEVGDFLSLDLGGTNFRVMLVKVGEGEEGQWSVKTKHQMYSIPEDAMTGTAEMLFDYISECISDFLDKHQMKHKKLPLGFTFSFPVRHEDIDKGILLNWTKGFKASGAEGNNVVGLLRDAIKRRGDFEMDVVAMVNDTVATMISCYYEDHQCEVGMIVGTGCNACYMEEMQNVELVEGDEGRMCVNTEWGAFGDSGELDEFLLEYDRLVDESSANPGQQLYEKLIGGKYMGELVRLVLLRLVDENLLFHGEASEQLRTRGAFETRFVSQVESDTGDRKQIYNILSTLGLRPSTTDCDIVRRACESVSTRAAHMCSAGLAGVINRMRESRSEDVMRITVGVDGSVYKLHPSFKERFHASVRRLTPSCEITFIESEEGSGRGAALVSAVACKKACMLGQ
Source text: The glucokinase activation in vitro may be determined by measuring the activation of recombinant GST-GK by a compound of the present invention in the absence or the presence of GKRP, a 68,000 Da protein inhibitor of GK. In these assays, formation of glucose-6-phosphate is coupled directly to the formation of thioNADH. GST-GK catalyzes the reaction of glucose and Mg-ATP to produce glucose-6-phosphate and ADP. Glucose-6-phosphate dehydrogenase (G6PDH) reduces thionicotinamide (thioNAD) to thioNADH. The assay measures the formation of […] at 405 nM.
The basic GK assay components are as follows: 25 mM HEPES (pH 7.1), 25 mM KCl, 2.5 mM MgCl2, 1 mM ATP (Sigma A-5394), 1 mM DTT, 1 mM thioNAD (Sigma T-7375), 80 units/mL G6PDH (Sigma G-5885), 10 mM glucose and […] GST-GK (110 nM). For assessing reversal of GK inhibition by GKRP, 20 μM Fructose-1-phosphate ([…]) and 25 μg/mL of recombinant GKRP (370 nM) are added to these assay components. F-1-P at 1 μM is used as a control in the GK/GKRP assay. F-1-P reverses inhibition of GST-GK by GKRP.
The assay is done in standard, 96-well, round-bottom plates and the total assay volume is 25 μL. […] The plates are then delivered via the Zymark XP arm to a Thermomax plate reader and read kinetically over three min at 405 nM at RT. Units are expressed as milli-optical density per minute (mOD/min).

Row | Structure (SMILES) | melting point [°C] | EC50 (recombinant GST-GK) [nM]
1 | CCOCS(=O)(=O)c1ccc(C(CC2CCCC2)C(=O)Nc2nc3ccc(OC)nc3s2)cc1 (stereo not shown) [Example 1, 3-Cyclopentyl-2-(4-ethoxymethanesulfonyl-phenyl)-N-(5-methoxy-thiazolo[5,4-b]pyridin-2-yl)-propionamide] | 158 to 160 | ~106
2 | COc1ccc2nc(NC(=O)C(CC3CCCC3)c3ccc(S(=O)(=O)CC(C)=O)cc3)sc2n1 (stereo not shown) [Example 2, 3-Cyclopentyl-N-(5-methoxy-thiazolo[5,4-b]pyridin-2-yl)-2-[4-(2-oxo-propane-1-sulfonyl)-phenyl]-propionamide] | 67 to 71 | –
3 | COc1ccc2nc(NC(=O)C(CC3CCCC3)c3ccc(S(=O)(=O)CCc4ccccc4)cc3)sc2n1 (stereo not shown) [Example 3, 3-Cyclopentyl-N-(5-methoxy-thiazolo[5,4-b]pyridin-2-yl)-2-[4-(2-phenyl-ethanesulfonyl)-phenyl]-propionamide] | 169 to 172 | –
